Key:
BV-2 cells [1] = assay: ELISA for TNF-α and IL-1β in LPS-induced BV-2 cells; type: cell-based, murine; details: 1 μg/ml LPS, 10, 20, 50 μM, 6 h TNF-α, 8 h IL-1β
Procedure: Cells were treated with different concentrations of circumdatin D in the presence or absence of LPS for indicated time. Then, the culture media were collected and centrifuged at 12,000g, 4°C for 20 min. The levels of TNF-α and IL-β in the supernatants were determined by ELISA kits according to the manufacturer's instructions.

C. elegans CL4176 = assay: Paralysis assay in transgenic C. elegans CL4176; type: in vivo, Caenorhabditis elegans; details: 36 h after temperature upshift 16 to 25°C
Procedure: The in vivo effects of circumdatin D on pro-inflammatory response and AChE activity were evaluated using C. elegans as animal model. Transgenic C. elegans CL4176 and E. coli OP50 were bought from the Caenorhabditis Genetics Center (University of Minnesota, Minneapolis, MN, USA). CL4176 strain become paralysis after up-shifting temperature from 16 to 25°C due to expressing human β-amyloid peptide in muscle cells. The nematodes were cultivated on nematode growth medium (NGM) plates (1.7% Agar, 0.3% NaCl, 0.25% peptone, 1 mM CaCl2, 1 mM MgSO4, 5 mg/L cholesterol, and 2.5 mM K2HPO4) with E. coli OP50 at 16°C. In paralysis assay, egg-synchronized CL4176 nematodes were incubated on solid NGM plates with E. coli OP50 at 16°C. When the age of the worms grew to L4 stage, nematodes were divided into four groups and exposed to appropriate concentrations of circumdatin D or vehicle control (0.4% DMSO) at 16 °C for 36 h. The temperature was then raised from 16 to 25°C, the number of paralyzed worms was counted under the microscope. The paralyzed worms were recognized for those with no response or only moved head when gently touched with a platinum wire. Each independent assay included three NGM plates with 30 worms for each one. Likewise, the AChE activity and RT-PCR assay was employed using similar conditions.
In paralysis assay, CL4176 worms were egg-synchronized onto fresh NGM plates containing OP50 bacteria at 16℃. To induce the transgene expression, the temperature raised from 16 to 25℃ and lasted until the end of the paralysis assay. The recording was performed at two hours interval typically after 24h at 25 °C until the majority of worm became paralyzed. The worms were considered as paralyzed if there was no response or they only moved their head when gently touched with a platinum wire. Each independent assay included three NGM plates with twenty worms in each one.

TLR4 and MyD88 = assay: Western blot of TLR4 and MyD88 in LPS-induced BV-2 cells; type: cell-based, murine; details: 1 μg/ml LPS, 10, 20, 50 μM, 6 h
Procedure: Total cell proteins were lysed using cell extraction buffer containing phenylmethylsulfonyl ﬂuoride and protease inhibitor cocktail. The cytosolic and nuclear extracts were collected using the Nuclear and Cytosolic extraction kit. The protein extracts were separated on SDS-PAGE and transferred to PVDF membranes (Millipore). The membrane was blocked with 5% nonfat milk for 1 h at room temperature, and incubated with indicated primary antibodies overnight at 4°C. After washing, the membrane was incubated with secondary antibodies conjugated to horseradish peroxidase (Proteintech, USA) at room temperature for 1 h. Then, the proteins of interest were visualized utilizing a chemiluminescence (ECL) detection system. The relative optical densities were analyzed using the Image Master™ 2D Elite software.

BV-2 cells [2] = assay: RT-PCR of TNF-α, IL-1β, iNOS and COX-2 mRNA in LPS-induced BV-2 cells; type: cell-based, murine; details: 1 μg/ml LPS, 10, 20, 50 μM, 24 h
Procedure: Total RNA was extracted using TRIzol reagent (Life Technologies, NY) and then reverse-transcribed into cDNA by reverse transcriptase (Invitrogen). mRNA expression of target genes iNOS, COX-2, IL-1β and TNF-α was quantified in comparison to housekeeping gene GAPDH using SYBR green detection method on ABI 7500 system (Applied Biosystems). The relative gene expression was calculated using comparative Ct (ΔΔCt) method. The following primers in Table 1 were used in this study.

SMILES: COc1ccc2c(c1)C(=O)N1CCC[C@H]1c1nc3ccc(OC)cc3c(=O)n1-2 [circumdatin D]
- LPS-induced TNF-α and IL-1β production (ELISA) (BV-2 cells [1]): suppressed LPS-induced TNF-α and IL-1β production
- reduction of paralysis (C. elegans CL4176; CL4176, 50 μM): about 24.9%
- reduction of paralysis (C. elegans CL4176; CL4176, 100 μM): ~42.8%
- reduction of paralysis (C. elegans CL4176; CL4176, 200 μM): ~74.8%
- LPS-induced TLR4 expression (TLR4 and MyD88): dramatically reversed the LPS-induced TLR4 expression
- MyD88 expression (TLR4 and MyD88): suppressed the MyD88 expression
- iNOS and COX-2 mRNA expression levels (q-PCR) (BV-2 cells [2]): dose-dependently decreasing the expression levels of both iNOS and COX-2
- proinflammatory cytokines mRNA levels (BV-2 cells [2]): significantly decreased proinflammatory cytokines
